Assay results: ChEMBL document CHEMBL5576098, “Synthesis and activity of benzimidazole N-Acylhydrazones against Trypanosoma cruzi, Leishmania amazonensis and Leishmania infantum” (Bioorg Med Chem Lett, 2024)
Activity calls are given as the source filed them. The calls are words filed in the database; no cut-off is given here.

What was measured:
Trypanosoma cruzi [1] = assay: Antitrypanosomal activity against bloodstream trypomastigote form of Trypanosoma cruzi Y measured after 24 hrs; type: functional, organism-based
Trypanosoma cruzi [2] = assay: Antitrypanosomal activity against Trypanosoma cruzi Tulahuen expressing beta-galactosidase gene infected in mouse L929 cells measured after 120 hrs; type: functional, organism-based; conditions: L929, 120 h
[3] = Cytotoxicity against mouse L929 cells assessed as inhibition of cell viability measured after 120 hrs; type: toxicity, cell-based
[4] = Selectivity index, ratio of CC50 for mouse L929 cells to IC50 for Trypanosoma cruzi Tulahuen expressing beta-galactosidase gene infected in mouse L929 cells; type: toxicity, cell-based; conditions: read-out: Ratio CC50/IC50
[5] = target: Cruzipain (Trypanosoma cruzi) (UniProt P25779); assay: Inhibition of Trypanosoma cruzi cruzain at 100 uM relative to control
Leishmania infantum [6] = assay: Antiparasitic activity against Leishmania infantum promastigotes infected in mouse RAW264.7 cells measured after 48 hrs; type: functional, organism-based; conditions: for IC50: RAW264.7, 48 h
Leishmania infantum [7] = assay: Antiparasitic activity against Leishmania infantum amastigotes infected in mouse RAW264.7 cells measured after 48 hrs; type: functional, organism-based; conditions: for IC50: RAW264.7, 48 h
[8] = Cytotoxicity against mouse RAW264.7 cells measured after 48 hrs; type: toxicity, cell-based
Leishmania amazonensis [9] = assay: Antiparasitic activity against Leishmania amazonensis promastigotes infected in mouse RAW264.7 cells measured after 48 hrs; type: functional, organism-based; conditions: for IC50: RAW264.7, 48 h
Leishmania amazonensis [10] = assay: Antiparasitic activity against Leishmania amazonensis amastigotes infected in mouse RAW264.7 cells measured after 48 hrs; type: functional, organism-based; conditions: for IC50: RAW264.7, 48 h
[11] = Selectivity index, ratio of CC50 for mouse RAW264.7 cells to IC50 for Leishmania amazonensis amastigotes infected in mouse RAW264.7 cells; type: toxicity, cell-based; conditions: read-out: Ratio CC50/IC50
Trypanosoma cruzi [12] = assay: Antitrypanosomal activity against tissue-culture derived trypomastigote form of Trypanosoma cruzi Y measured after 120 hrs; type: functional
[13] = Selectivity index, ratio of CC50 for mouse RAW264.7 cells to IC50 for Leishmania infantum promastigotes infected in mouse RAW264.7 cells; type: toxicity, cell-based; conditions: read-out: Ratio CC50/IC50
[14] = Selectivity index, ratio of CC50 for mouse RAW264.7 cells to IC50 for Leishmania infantum amastigotes infected in mouse RAW264.7 cells; type: toxicity, cell-based; conditions: read-out: Ratio CC50/IC50
[15] = Cytotoxicity against non-infected mouse peritoneal macrophage cells measured after 24 hrs; type: toxicity, cell-based; conditions: non-infected peritoneal macrophages, read-out: LC50
[16] = Selectivity index, ratio of LC50 for mouse peritoneal macrophage cells to IC50 for bloodstream trypomastigote form of Trypanosoma cruzi Y; type: toxicity; conditions: peritoneal macrophages, read-out: Ratio LC50/IC50
[17] = Selectivity index, ratio of CC50 for mouse RAW264.7 cells to IC50 for Leishmania amazonensis promastigotes infected in mouse RAW264.7 cells; type: toxicity, cell-based; conditions: read-out: Ratio CC50/IC50

Chain of Cruzipain (Trypanosoma cruzi) (P25779 123-467 limits assumed): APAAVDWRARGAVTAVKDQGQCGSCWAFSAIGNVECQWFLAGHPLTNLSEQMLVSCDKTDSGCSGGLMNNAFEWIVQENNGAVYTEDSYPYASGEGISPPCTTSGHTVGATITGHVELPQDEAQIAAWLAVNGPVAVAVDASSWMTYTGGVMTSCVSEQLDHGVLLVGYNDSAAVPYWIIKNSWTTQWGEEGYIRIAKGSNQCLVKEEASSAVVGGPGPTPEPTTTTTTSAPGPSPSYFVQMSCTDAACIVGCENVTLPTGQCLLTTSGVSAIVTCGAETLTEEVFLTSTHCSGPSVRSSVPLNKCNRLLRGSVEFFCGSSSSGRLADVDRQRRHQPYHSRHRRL

Row | SMILES | IC50 (Trypanosoma cruzi [1]) | IC50 (Trypanosoma cruzi [2]) | CC50 at 120 h [3] | selectivity ratio [4] | inhibition [5] | Activity (Leishmania infantum [6]) | Activity (Leishmania infantum [7]) | CC50 at 48 h [8] | Activity (Leishmania amazonensis [9]) | IC50 (Leishmania amazonensis [10]) | selectivity ratio [11] | LC50 (Trypanosoma cruzi [12]) | Activity (Leishmania amazonensis [10]) | IC50 (Leishmania infantum [7]) | selectivity ratio [14] | CC50 at 24 h [15] | selectivity ratio [16] | also measured
1 | COc1cc(/C=N/NC(=O)c2nc3ccccc3[nH]2)cc(OC)c1 | > 500 µM | 29 µM | 164 µM | 5.6 | 50% | inactive | inactive | 8.94 µM | inactive | 71.8 µM | 0.1 | – | – | – | – | – | – | –
2 | O=C(N/N=C/c1ccc([N+](=O)[O-])cc1)c1nc2ccccc2[nH]1 | > 500 µM | 202 µM | > 323 µM | > 1.6 | 2% | inactive | inactive | 84.4 µM | inactive | – | – | 328 µM | inactive | – | – | – | – | –
3 | O=C(N/N=C/c1ccccc1O)c1nc2ccccc2[nH]1 | > 500 µM | 3.6 µM | 52.4 µM | 14.7 | 4% | – | – | 29.2 µM | inactive | 104 µM | 0.3 | 19.9 µM | – | 21.8 µM | 1.3 | – | – | IC50 (Leishmania infantum [6]): 23.9 µM; selectivity ratio [13]: 1.2
4 | O=C(N/N=C/c1ccccc1)c1nc2ccccc2[nH]1 | > 500 µM | 98.4 µM | 204 µM | 2.1 | 25% | inactive | – | 123 µM | inactive | 191 µM | 0.6 | – | – | 53.7 µM | 2.3 | – | – | –
5 | O=C(Cn1ccnc1[N+](=O)[O-])NCc1ccccc1 [BENZNIDAZOLE] | 8.8 µM | 1.52 µM | 2110 µM | 1390 | – | – | – | – | – | – | – | 10.8 µM | – | – | – | > 1000 µM | 113 | –
6 | O=C(N/N=C/c1ccc(O)c(O)c1)c1nc2ccccc2[nH]1 | 144 µM | 72.9 µM | 102 µM | 1.4 | 61% | – | – | 14.8 µM | – | 62.1 µM | 0.2 | 98.2 µM | – | 37.8 µM | 0.4 | 128 µM | 0.9 | IC50 (Leishmania infantum [6]): 90.8 µM; selectivity ratio [13]: 0.2; IC50 (Leishmania amazonensis [9]): 170 µM; selectivity ratio [17]: 0.09
7 | COc1ccc(/C=N/NC(=O)c2nc3ccccc3[nH]2)cc1OC | 160 µM | 173 µM | 293 µM | 1.7 | 35% | inactive | inactive | 53.6 µM | inactive | – | – | – | inactive | – | – | > 500 µM | > 3.1 | –
8 | O=C(N/N=C/c1ccc(O)cc1)c1nc2ccccc2[nH]1 | 89.7 µM | 68.9 µM | 170 µM | 2.5 | 65% | inactive | – | 88.8 µM | inactive | – | – | 233 µM | inactive | 97.4 µM | 0.9 | > 500 µM | > 5.6 | –
9 | CCCCCCCCCCCCCCCCOP(=O)([O-])OCC[N+](C)(C)C [MILTEFOSINE] | – | – | – | – | – | – | – | 21.8 µM | – | 1.67 µM | 13.1 | – | – | 1.72 µM | 12.7 | – | – | IC50 (Leishmania infantum [6]): 3.92 µM; selectivity ratio [13]: 5.6; IC50 (Leishmania amazonensis [9]): 5.2 µM; selectivity ratio [17]: 4.2
10 | O=C(N/N=C/c1ccncc1)c1nc2ccccc2[nH]1 | > 500 µM | 32.4 µM | 265 µM | 8.2 | 20% | inactive | inactive | 126 µM | inactive | 172 µM | 0.7 | 619 µM | – | – | – | – | – | –
11 | COc1cc(/C=N/NC(=O)c2nc3ccccc3[nH]2)ccc1O | > 500 µM | 65.7 µM | 72.2 µM | 1.1 | 38% | inactive | inactive | 89.9 µM | inactive | – | – | 394 µM | inactive | – | – | – | – | –
